Source: article PMC9511493, “2-(Fluoromethoxy)-4′-(S-methanesulfonimidoyl)-1,1′-biphenyl (UCM-1306), an Orally Bioavailable Positive Allosteric Modulator of the Human Dopamine D1 Receptor for Parkinson’s Disease” (Journal of Medicinal Chemistry, 2022)
“Also recorded” adds a separate entry of the source.

Assays:
[1] = tested on: C57BL/6J mice; assay: novel object recognition test; format: in vivo, mouse; conditions: 1 mg/kg ip; tested at 24 and 96 h
Description: Procedures for animal experiments were conducted in adherence to the European Communities Council Directive (86/609/ECC) and Spanish regulations (BOE 252/34367-91, 2005) for the use of laboratory animals. Experiments were performed on 3 month old male mice with a C57BL/6J background. Eight mice were used for each experimental condition. Mice were maintained on a 12 h light/dark cycle (lights on at 08:00 am), with water and food provided ad libitum. Object recognition test was performed according to a previously reported method.[58] Briefly, mice were first habituated to an empty open field apparatus (40 × 40 × 40 cm) for 5 min. After the habituation session, mice received an ip injection of compound 26 (1 mg/kg) or vehicle (NaCl 0.9%). Twenty minutes later, mice were placed again in the open field, which now included two identical copies of an object (“familiar” object) located in two adjacent corners, and mice were allowed to explore for 10 min (acquisition session). […] The total time of object exploration (defined as the mouse touching an object with its nose or forepaws) was scored, and object recognition memory was calculated by the following discrimination ratio: time exploring the new object—time exploring the familiar object)/total time exploring both objects.

[2] = plasma, brain and CSF levels after a single oral dose in mice; format: in vivo, mouse
Description: Prior to the evaluation of the new D1R PAM 26 in animal models, the in vivo cerebrospinal fluid (CSF) and brain permeability were studied. […] Concentrations in the CSF and brain were quantifiable up to 4 h. Brain-to-plasma concentration ratios were in the range of 0.55–1.15 between 0.5 and 4 h and CSF-to-plasma concentration ratio in the range of 0.13–0.21 between 0.5 and 4 h.
Figure 5 Compound levels in the plasma, brain, and CSF of mouse administered with 5 mg/kg (po) of compound 26. Horizontal dotted line indicates the EC50 value of the compound.

[3] = stability in mouse liver homogenate; format: in vitro ADME; conditions: remaining compound after 24 h
Description: HSA binding assay. The assessment of compounds binding to HSA was performed by incubating a fixed concentration of the compound with different concentrations of immobilized HSA, using the TRANSILXL HSA Binding Kit (TMP-0210- 2096, Sovicell). An 8-well unit of the TRANSIL assay plate was used for each compound : six wells contain increasing concentrations of HSA immobilized on silica beads suspended in PBS at pH 7.4, and two wells contain buffer only and serve as references to account for nonspecific binding. The TRANSIL assay plate was thawed for 3 h at rt and centrifuged at 750g for 5 s. […] After this time, the plate was centrifuged at 750gfor 10 min, and 50 μL of the supernatants were transferred for analytical quantification by HPLC-MS using selected ion monitoring (SIM). The binding percentage was calculated from the remaining free compound concentration in the supernatant of each well, using the spreadsheet and algorithms supplied with the kit.
Stability in mouse serum. […] Supernatants were then analyzed by HPLC-MS using SIM mode, and quantification was estimated by using the peak area integration normalized with an internal standard.
Stability assay in mouse liver homogenate. Stability of test compounds and reference compound propranolol was determined by incubation in liver homogenates following previously reported procedure. […]

## CS(=N)(=O)c1ccc(-c2ccccc2OCF)cc1 (stereo not drawn) [Compound 26, 2-(Fluoromethoxy)-4′-(S-methanesulfonimidoyl)-1,1′-biphenyl]
[1]
  memory in the novel object recognition test: increases memory trace; also recorded: Enhanced memory
[2]; 5 mg/kg po
  CSF-to-plasma free concentration ratio: approximately 1
[2]; 5 mg/kg po, male BALB/c mice
  time up to which CSF concentrations were quantifiable: 4 h
  time up to which brain concentrations were quantifiable: 4 h
  time up to which plasma concentrations were quantifiable: 8 h
[2]; male, BALB/c, mouse, CSF and plasma, 5 mg/kg po, between 0.5 and 4 h, read-out: CSF-to-plasma concentration ratio
  Kp: 0.13 to 0.21
[2]; male, BALB/c, mouse, brain and plasma, 5 mg/kg po, between 0.5 and 4 h, read-out: brain-to-plasma concentration ratio
  Kp at 4 h: 0.55 to 1.15
[2]; mouse, plasma, 5 mg/kg single oral dose, male BALB/c mice
  Tmax at 8 h: 30 min
[3]
  liver homogenate stability (%): 65%
